The record followed here is EP1862454A1, “Novel compounds, isomer thereof or pharmaceutically acceptable salts thereof as vanilloid receptor antagonist; and a pharmaceutical composition containing the same” (Amorepacific Corporation, priority 2006, dated 2007).

In test [1] the test system is Male ICR mice. The test is described as follows: Analgesic activity test: mouse writhing test induced with phenyl-p-quinone. It is filed as in vivo. As to conditions: writhes counted vs control group. On the procedure:
2. Analgesic activity test: Mouse writhing test by inducing with phenyl-p-quinone
Male ICR mice (mean body weight 25g) were maintained in a controlled lighting environment (12 h on/ 12 h off) for experiment. Animals received an intraperitoneal injection of 0.3ml of the chemical irritant phenyl-p-quinone (dissolved in saline containing 5% ethanol to be a dose of 4.5mg/kg) and 6 mins later, the number of abdominal constrictions was counted in the subsequent 6 mins period. Animals (10 animals/group) received 0.2ml of test compounds solution in vehicle of ethanol/Tween 80/saline (10/10/80) intraperitoneally 30 min before the injection of phenyl-p-quinone. A reduction in the number of writhes responding to the test drug compound relative to the number responding in saline control group was considered to be indicative of an analgesic effect. Analgesic effect was calculated by % inhibition equation (% inhibition=(C-T)/C x 100), wherein C and T represent the number of writhes in control and compound-treated group, respectively (Table 2).
On the technique in general: An intraperitoneal irritant provokes the stretching counted in writhing tests.

In test [2] the target is T1, vanilloid receptor (Rattus norvegicus, UniProt O35433).
T1 construct: DRG nerve cells from the primary culture of 2 days were equilibrated; endogenous in cells; host or cells: primary culture of dorsal root ganglion neurons from neonatal SD rats
T1 sequence (O35433 whole entry): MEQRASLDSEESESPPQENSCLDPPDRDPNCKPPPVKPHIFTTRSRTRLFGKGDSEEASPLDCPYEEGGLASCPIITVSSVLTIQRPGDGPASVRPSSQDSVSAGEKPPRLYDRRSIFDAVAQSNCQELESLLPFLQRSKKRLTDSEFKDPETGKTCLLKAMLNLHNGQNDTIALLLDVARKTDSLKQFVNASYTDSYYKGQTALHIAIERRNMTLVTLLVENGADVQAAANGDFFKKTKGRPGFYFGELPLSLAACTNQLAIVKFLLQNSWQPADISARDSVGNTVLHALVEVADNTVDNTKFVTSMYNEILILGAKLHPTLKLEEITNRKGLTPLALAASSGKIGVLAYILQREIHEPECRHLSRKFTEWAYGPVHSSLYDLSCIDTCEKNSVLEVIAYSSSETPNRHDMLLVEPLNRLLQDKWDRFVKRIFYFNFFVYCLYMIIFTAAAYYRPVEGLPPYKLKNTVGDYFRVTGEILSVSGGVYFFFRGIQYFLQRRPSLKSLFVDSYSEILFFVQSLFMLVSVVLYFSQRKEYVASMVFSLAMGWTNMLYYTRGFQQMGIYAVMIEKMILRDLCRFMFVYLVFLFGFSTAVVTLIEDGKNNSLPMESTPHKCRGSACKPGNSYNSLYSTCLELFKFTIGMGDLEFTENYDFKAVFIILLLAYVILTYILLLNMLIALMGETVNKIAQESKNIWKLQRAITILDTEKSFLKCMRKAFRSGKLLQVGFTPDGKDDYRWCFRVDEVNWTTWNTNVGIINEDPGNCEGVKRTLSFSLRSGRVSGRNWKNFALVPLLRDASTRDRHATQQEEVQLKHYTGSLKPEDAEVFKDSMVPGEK
In words: 45Ca influx test in primary culture of neonatal rat DRG neurons, inhibition of the capsaicin response. The note with it: DRG nerve cells; capsaicin 0.5 µM; 45Ca 10 µCi/ml; 10 mins at room temperature; read-out: Antagonist Calcium Uptake Test (IC50). In kind it is cell-based, SD rats. The method, then:
1) Separation of spinal dorsal root ganglia (DRG) in newborn rats and primary culture thereof
Neonatal (2-3 day old or younger than 2-3 day old) SD rats were put in ice for 5 minutes to anesthetize and disinfected with 70% ethanol. DRG of all part of spinal cord were dissected (Wood et al., 1988, J. Neurosci. 8, pp3208-3220) and collected in DME/F12 medium to which 1.2g/l sodium bicarbonate and 50mg/l gentamycin were added. The DRG were incubated sequentially at 37°C for 30 min in 200 U/ml collagenase and 2.5mg/ml trypsin, separately. The ganglia were washed twice with DME/F12 medium supplemented with 10% horse serum, triturated through a fire-polished Pasteur pipette, filtered through Nitex 80 membrane to obtain single cell suspension and the suspension was washed once more. This was subjected to centrifugation, then resuspended in cell culture medium at certain level of cell density. As the cell culture medium, DME/F12 medium supplemented with 10% horse serum was diluted with identical medium conditioned by C6 glioma cells 2 days on a confluent monolayer (1:1), and NGF (Nerve Growth Factor) was added to adjust 200ng/ml as final concentration. After the cells were grown for 2 days in medium where cytosine arabinoside (Ara-C, 100 µM) was added to kill dividing nonneuronal cells, medium was changed to one without Ara-C. The resuspended cells were plated at a density of 1500-2000 neurons/well onto Terasaki plates previously coated with 10 µg/ml poly-D-ornithine.
2) ^45 Ca influx experiments
DRG nerve cells from the primary culture of 2 days were equilibrated by washing 4 times with HEPES (10mM, pH 7.4)-buffered Ca ^2+, Mg^2+-free HBSS (H-HBSS). The solution in each well was removed from the individual well. Medium containing the test compound plus capsaicin (final concentration 0.5 µM) and ^45Ca (final concentration 10 µCi/ml) in H-HBSS was added to each well and incubated at room temperature for 10 mins. Terasaki plates were washed five times with H-HBSS and dried at room temperature. To each well, 0.3% SDS (10 µl) was added to elute ^45Ca. After the addition of scintillation cocktail into each well, the amount of ^45Ca influx into neuron was measured by counting radioactivity. Antagonistic activities of test compounds against vanilloid receptor were calculated as percent of the inhibition of maximal response of capsaicin at a concentration of 0.5 µM. […]

One may read the IC50 as the concentration needed to halve the response being measured. As for `C=Cc1cc(CNC(=S)NCc2ccc(C(C)(C)C)cc2)ccc1NS(C)(=O)=O` [Example 1, N-{4-[3-(4-t-butylbenzyl)thioureido-methyl]-2-vinyl-phenyl} methanesulfonamide], the “Analgesic effect (%Inhibition)” value in test [1] (Dose 0.3 mg/kg intraperitoneally 30 min before phenyl-p-quinone (4.5mg/kg)) came out at 93%. Further, the IC50 in test [2] came to 54 nM. `C=Cc1cc(CNC(=S)NCc2ccc(C(C)(C)C)cc2)cc(C(F)(F)F)c1NS(C)(=O)=O` [Example 2, N-{4-[3-(4-t-butylbenzyl)thioureido-methyl]-2-trifluoromethyl-6-vinyl-phenyl}methanesulfonamide]: the IC50 in test [2] was 330 nM. Turning to `C=Cc1cc(CNC(=S)NCc2ccc(C(C)(C)C)cc2)cc(F)c1NS(C)(=O)=O` [Example 3, N-{4-[3-(4-t-butylbenzyl)thioureido-methyl]-2-fluoro-6-vinyl-phenyl}methanesulfonamide], the “Analgesic effect (%Inhibition)” value in test [1] (Dose 1 mg/kg intraperitoneally 30 min before phenyl-p-quinone (4.5mg/kg)) came to 57%. The IC50 in test [2] amounted to 35 nM. `C=Cc1cc(CNC(=S)NCc2ccc(C(C)(C)C)cc2)cc(Cl)c1NS(C)(=O)=O` [Example 4, N-{4-[3-(4-t-butylbenzyl)thioureido-methyl]-2-chloro-6-vinyl-phenyl}methanesulfonamide]: the IC50 in test [2] amounted to 93 nM.

Turning to `C=Cc1cc(CNC(=S)NCc2ccc(C(C)(C)C)cc2)cc(C)c1NS(C)(=O)=O` [Example 5, N-{4-[3-(4-t-butylbenzyl)thioureido-methyl]-2-methyl-6-vinyl-phenyl}methanesulfonamide], the IC50 in test [2] came out at 190 nM. Take `C=Cc1cc(C(C)NC(=S)NCc2ccc(C(C)(C)C)cc2)cc(F)c1NS(C)(=O)=O` (centres unmarked) [Example 6, N-(4-{1-[3-(4-t-butylbenzyl)thioureido]ethyl}-2-fluoro-6-vinyl-phenyl) methanesulfonamide]: the IC50 in test [2] amounted to 120 nM.
